Like-named read-outs stand apart in the source and are kept apart here.
How the values were obtained:
SARS-CoV-2 3CL protease = SARS-CoV-2 3CL protease (Severe acute respiratory syndrome coronavirus 2, UniProt P0DTD1); experiment: biochemical; settings: 50% SARS-CoV-2 3CL protease inhibitory concentration, read-out: IC50
SARS-CoV-2 = experiment: microbe, parasite or virus in culture; assay type: cell-based; settings: Severe acute respiratory syndrome coronavirus 2, VeroE6/TMPRSS2, 72 h, 50% SARS-CoV-2 infected cell death inhibitory concentration, VeroE6/TMPRSS2 cells, 3 days culture

| Structure (SMILES) | IC50 (SARS-CoV-2 3CL protease; RapidFire MS) [nM] | EC50 (SARS-CoV-2; CellTiter-Glo 2.0) [nM] | IC50 (SARS-CoV-2 3CL protease; given as class symbols) [nM] | EC50 (SARS-CoV-2; class symbols) [nM] |
| --- | --- | --- | --- | --- |
| N#Cc1cc(Cn2c(Nc3ccc4c(c3)CCO4)nc(=O)n(-c3cncc4ccccc34)c2=O)cc(F)c1F [Compound I-0481] | 2.7 | 43.2 | – | – |
| COc1ccc(Nc2nc(=O)n(Cc3ccc[nH]c3=O)c(=O)n2Cc2cc(F)c(F)c(F)c2)c(C)c1 [Compound I-0129] | – | – | < 100 | 1000 to 10000 |
| Cn1cnc(Cn2c(=O)nc(Nc3cc4cn(C5CCOCC5)nc4cc3Cl)n(Cc3cc(Cl)c(F)cc3F)c2=O)n1 [II-0098] | – | – | < 100 | 1000 to 10000 |
| O=c1[nH]cc(F)cc1Cn1c(=O)nc(Nc2cc3c(cc2Cl)OCC3)n(Cc2cc(F)c(F)c(F)c2)c1=O [Compound I-0272] | – | – | < 100 | < 1000 |
| Cc1nc2cc(Cl)c(Nc3nc(=O)n(Cc4ccc[nH]c4=O)c(=O)n3Cc3cc(F)c(F)c(F)c3)cc2s1 [Compound I-0370] | – | – | < 100 | 1000 to 10000 |
| Cc1cncc(-n2c(=O)nc(Nc3ccc4nn(CC(F)(F)F)cc4c3)n(Cc3cc(C#N)ccc3F)c2=O)c1 [II-0312] | – | – | < 100 | < 1000 |
| Cc1cncc(-n2c(=O)nc(N3CC4(CCOC4)C3)n(Cc3cc(F)c(F)c(F)c3)c2=O)c1 [II-0376] | 1000 | 7130 | – | – |
| CCn1cc2cc(Nc3nc(=O)n(Cc4ncn(C)n4)c(=O)n3Cc3cc(F)c(F)cc3F)c(Cl)cc2n1 [II-0548] | 14 | 533 | – | – |
| CNc1nc2cc(Cl)c(Nc3nc(=O)n(-c4cncc(C)c4)c(=O)n3Cc3cc(F)c(F)cc3F)cc2s1 [II-0236] | – | – | < 100 | < 1000 |
| O=c1[nH]cc(Cl)cc1Cn1c(=O)nc(Nc2cc3cn(CCN4CCOCC4)nc3cc2Cl)n(Cc2cc(F)c(F)c(F)c2)c1=O [Compound I-0250] | – | – | < 100 | 1000 to 10000 |
| CNc1nc2cc(F)c(Nc3nc(=O)n(-c4cncc(C)c4)c(=O)n3Cc3cc(C#N)ccc3C)cc2s1 [II-0419] | – | – | < 100 | < 1000 |
| CC(C)n1cc2cc(Nc3nc(=O)n(-c4cncc5ccccc45)c(=O)n3Cc3ccc(F)c(C#N)c3)ccc2n1 [II-0168] | – | – | < 100 | < 1000 |
| Cn1nc2cc(Cl)c(Nc3nc(=O)n(Cc4cccnc4O)c(=O)n3Cc3cc(F)c(F)c(F)c3)cc2c1CCCO [Compound I-0364] | – | – | < 100 | 1000 to 10000 |
| Cc1cncc(-n2c(=O)nc(Nc3cc4cn(C)nc4cc3C)n(Cc3cc(F)c(F)c(F)c3)c2=O)c1 [Compound I-0114] | – | – | < 100 | 1000 to 10000 |
| COc1ccc(Nc2nc(=O)n(Cc3ccc[nH]c3=O)c(=O)n2Cc2cc(F)c(F)c(F)c2)c(F)c1 [Compound I-0026] | – | – | < 100 | 1000 to 10000 |
| Cc1cncc(-n2c(=O)nc(Nc3cc4cn(C(C)C)nc4cc3Cl)n(Cc3ccc(F)c(C#N)c3)c2=O)c1 [II-0544] | – | – | < 100 | < 1000 |
| Cn1cc2cc(Nc3nc(=O)n(-c4cncc(Cl)c4)c(=O)n3Cc3cc(F)c(F)c(C#N)c3)ccc2n1 [II-0284] | 9.2 | 184 | – | – |
| CC[C@@H](Nc1nc(=O)n(Cc2ccc[nH]c2=O)c(=O)n1Cc1cc(F)c(F)c(F)c1)C(F)(F)F [II-0370] | 520 | 28900 | – | – |
| COc1ccc(Nc2nc(=O)n(Cc3ncn(C(F)F)n3)c(=O)n2Cc2cc(F)c(F)c(F)c2)cc1 [II-0257] | 970 | 9140 | – | – |
| Cn1cnc(Cn2c(=O)nc(Nc3cc4cn(C(F)F)nc4cc3Cl)n(Cc3cc(F)c(F)c(F)c3)c2=O)n1 [Compound I-0434] | – | – | < 100 | 1000 to 10000 |
| Cc1cncc(-n2c(=O)nc(Nc3cc4c(cc3Cl)nc3n4CCN3)n(Cc3cc(Cl)c(F)cc3F)c2=O)c1 [II-0279] | – | – | < 100 | 1000 to 10000 |
| Cc1cncc(-n2c(=O)nc(Nc3cc4cn(C)nc4cc3F)n(Cc3ccc(F)c(C#N)c3)c2=O)c1 [Compound I-0384] | – | – | < 100 | < 1000 |

Source: patent US12559474B2, “Triazine derivatives having virus replication inhibitory activity and pharmaceutical composition comprising the same” (priority 2021, dated 2026)
